Source: PubChem BioAssay AID248 (DTP/NCI, 2004)
Toxic doses and inconclusive results are not listed.

System: L1210 leukemia ip in BDF1 mice, survival T/C
Test: NCI In Vivo Anticancer Drug Screen. Data for tumor model L1210 Leukemia (intraperitoneal) in B6D2F1 (BDF1) mice
Conditions: endpoint: mean survival time, higher = longer survival
Method in brief: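 Mice bearing the transplanted tumor received compound or vehicle. Survival of the treated group was divided by that of the vehicle-treated control group to give the ratio.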

[1] = dose: 50.0 mg/kg/injection, schedule: Q01DX009 (ip), vehicle: saline with Tween-80
[2] = dose: 100.0 mg/kg/injection, schedule: Q01DX009 (ip), vehicle: saline with Tween-80
[3] = dose: 200.0 mg/kg/injection, schedule: Q01DX009 (ip), vehicle: saline with Tween-80
[4] = dose: 100.0 mg/kg/injection, schedule: Q04DX003 (ip), vehicle: saline with Tween-80
[5] = dose: 200.0 mg/kg/injection, schedule: Q04DX003 (ip), vehicle: saline with Tween-80

CN(Cc1cnc2nc(N)cc(N)c2n1)c1ccc(C(=O)NC(CCC(=O)O)C(=O)O)cc1 (centres undefined)
T/C (dose: 0.5 mg/kg/injection, schedule: Q01DX009 (ip), vehicle: other): 102 % of control
T/C (dose: 1.0 mg/kg/injection, schedule: Q01DX009 (ip), vehicle: other): 100 % of control
T/C (dose: 2.0 mg/kg/injection, schedule: Q01DX009 (ip), vehicle: other): 112 % of control
T/C (dose: 4.0 mg/kg/injection, schedule: Q01DX009 (ip), vehicle: other): 105 % of control
T/C (dose: 8.0 mg/kg/injection, schedule: Q01DX009 (ip), vehicle: other): 117 % of control
T/C (dose: 50.0 mg/kg/injection, schedule: Q01DX009 (ip), vehicle: other): 154 % of control
T/C (dose: 100.0 mg/kg/injection, schedule: Q01DX009 (ip), vehicle: other): 164 % of control

c1ccc2[nH]c(-c3cscn3)nc2c1
T/C (dose: 75.0 mg/kg/injection, schedule: Q04DX003 (ip), vehicle: saline): 103 % of control
T/C (dose: 150.0 mg/kg/injection, schedule: Q04DX003 (ip), vehicle: saline): 103 % of control
T/C (dose: 300.0 mg/kg/injection, schedule: Q04DX003 (ip), vehicle: saline): 106 % of control

COC(=O)C(=O)CC(=O)c1ccccc1
T/C (dose: 100.0 mg/kg/injection, schedule: Q04DX002 (ip), vehicle: Klucel (hydroxypropylcellulose) (HPC)): 116 % of control
T/C (dose: 200.0 mg/kg/injection, schedule: Q04DX002 (ip), vehicle: Klucel (hydroxypropylcellulose) (HPC)): 106 % of control
T/C (dose: 400.0 mg/kg/injection, schedule: Q04DX002 (ip), vehicle: Klucel (hydroxypropylcellulose) (HPC)): 118 % of control

C#CCC(B1OCCO1)B1OCCO1
T/C (dose: 50.0 mg/kg/injection, schedule: Q01DX001 (ip), vehicle: Klucel (hydroxypropylcellulose) (HPC)): 97 % of control
T/C (dose: 100.0 mg/kg/injection, schedule: Q01DX001 (ip), vehicle: Klucel (hydroxypropylcellulose) (HPC)): 90 % of control
T/C (dose: 200.0 mg/kg/injection, schedule: Q01DX001 (ip), vehicle: Klucel (hydroxypropylcellulose) (HPC)): 100 % of control

COC1C=CC=CC=C1
T/C (dose: 15.0 mg/kg/injection, schedule: Q01DX009 (ip), vehicle: saline with Tween-80): 108 % of control
T/C (dose: 30.0 mg/kg/injection, schedule: Q01DX009 (ip), vehicle: saline with Tween-80): 113 % of control
T/C (dose: 60.0 mg/kg/injection, schedule: Q01DX009 (ip), vehicle: saline with Tween-80): 103 % of control

Cc1ccc(S(=O)(=O)Nc2cc(C)ccc2C)cc1
T/C (dose: 50.0 mg/kg/injection, schedule: Q01DX001 (ip), vehicle: carboxymethylcellulose (CMC)): 93 % of control
T/C (dose: 100.0 mg/kg/injection, schedule: Q01DX001 (ip), vehicle: carboxymethylcellulose (CMC)): 95 % of control
T/C (dose: 200.0 mg/kg/injection, schedule: Q01DX001 (ip), vehicle: carboxymethylcellulose (CMC)): 104 % of control
T/C (dose: 400.0 mg/kg/injection, schedule: Q01DX001 (ip), vehicle: carboxymethylcellulose (CMC)): 88 % of control

O=C1c2ccccc2CCC1C1(O)C(=O)Nc2ccccc21 (centres undefined)
T/C [1]: 104 % of control
T/C [2]: 101 % of control
T/C [3]: 93 % of control

CCOC(=O)c1c(/N=C/c2cc(Br)ccc2O)sc2c1CCCC2
T/C (dose: 100.0 mg/kg/injection, schedule: Q04DX002 (ip), vehicle: saline with Tween-80): 109 % of control
T/C (dose: 200.0 mg/kg/injection, schedule: Q04DX002 (ip), vehicle: saline with Tween-80): 102 % of control
T/C (dose: 400.0 mg/kg/injection, schedule: Q04DX002 (ip), vehicle: saline with Tween-80): 98 % of control

CC1(C)C(N2CCOCC2)CS1(=O)=O (centres undefined)
T/C [1]: 101 % of control
T/C [2]: 103 % of control
T/C [4]: 94 % of control
T/C [3]: 104 % of control
T/C [5]: 88 % of control

CCCCCCCCCCC1CCC2CCC3CCCC4CCC1C2C34 (centres undefined)
T/C (dose: 25.0 mg/kg/injection, schedule: Q04DX003 (ip), vehicle: acetone): 96 % of control
T/C (dose: 50.0 mg/kg/injection, schedule: Q04DX003 (ip), vehicle: acetone): 88 % of control
T/C (dose: 100.0 mg/kg/injection, schedule: Q01DX001 (ip), vehicle: saline): 88 % of control
T/C (dose: 100.0 mg/kg/injection, schedule: Q04DX003 (ip), vehicle: acetone): 86 % of control
T/C (dose: 200.0 mg/kg/injection, schedule: Q01DX001 (ip), vehicle: saline): 90 % of control

NC(=S)N/N=C/c1ccc([N+](=O)[O-])s1
T/C (dose: 12.5 mg/kg/injection, schedule: Q01DX005 (ip), vehicle: water): 102 % of control
T/C (dose: 25.0 mg/kg/injection, schedule: Q01DX005 (ip), vehicle: water): 98 % of control
T/C (dose: 50.0 mg/kg/injection, schedule: Q01DX005 (ip), vehicle: water): 93 % of control
T/C (dose: 50.0 mg/kg/injection, schedule: Q04DX003 (ip), vehicle: saline with Tween-80): 103 % of control
T/C (dose: 100.0 mg/kg/injection, schedule: Q01DX005 (ip), vehicle: water): 100 % of control
T/C [4]: 104 % of control
T/C (dose: 100.0 mg/kg/injection, schedule: Q04DX003 (ip), vehicle: water): 88 % of control
T/C (dose: 200.0 mg/kg/injection, schedule: Q01DX005 (ip), vehicle: water): 94 % of control
T/C [5]: 100 % of control
T/C (dose: 200.0 mg/kg/injection, schedule: Q04DX003 (ip), vehicle: water): 91 % of control
